In the NIST ThermoML archive (doi:10.1016/j.fluid.2008.01.024):
Numbers after ± are expanded uncertainties. Values belong to the compound of their own block, whether it stands above or below them.

Tests used:
[1] = relative permittivity at zero frequency (dimensionless); conditions: 303.15 K; 101 kPa; Liquid; capacitive measurement method
[2] = relative permittivity at zero frequency (dimensionless); xn = mol fraction of the nth substance listed; conditions: 303.15 K, 101 kPa, Liquid, capacitive measurement method

SMILES: CN(C)CCO [2-(N,N-dimethylamino)ethanol]
- relative permittivity at zero frequency [1]: 17.18 ± 0.1

SMILES: CN(C)CCO [2-(N,N-dimethylamino)ethanol] + OCC(O)CO
- relative permittivity at zero frequency ([2]; x2 = 0): 17.18 ± 0.1
- relative permittivity at zero frequency ([2]; x2 = 0.09): 18.66 ± 0.11
- relative permittivity at zero frequency ([2]; x2 = 0.175): 20.4 ± 0.12
- relative permittivity at zero frequency ([2]; x2 = 0.257): 22.09 ± 0.13
- relative permittivity at zero frequency ([2]; x2 = 0.334): 23.83 ± 0.14
- relative permittivity at zero frequency ([2]; x2 = 0.409): 25.5 ± 0.15
- relative permittivity at zero frequency ([2]; x2 = 0.48): 27.25 ± 0.16
- relative permittivity at zero frequency ([2]; x2 = 0.547): 28.98 ± 0.17
- relative permittivity at zero frequency ([2]; x2 = 0.612): 30.54 ± 0.18
- relative permittivity at zero frequency ([2]; x2 = 0.675): 32.59 ± 0.2
- relative permittivity at zero frequency ([2]; x2 = 0.734): 33.74 ± 0.2
- relative permittivity at zero frequency ([2]; x2 = 0.792): 35.03 ± 0.21
- relative permittivity at zero frequency ([2]; x2 = 0.847): 37.13 ± 0.22
- relative permittivity at zero frequency ([2]; x2 = 0.9): 38.63 ± 0.23
- relative permittivity at zero frequency ([2]; x2 = 0.951): 39.96 ± 0.24

- relative permittivity at zero frequency [1]: 36.55 ± 0.22
SMILES: CN(C)C=O [dimethylformamide]

- relative permittivity at zero frequency ([2]; x2 = 0): 36.55 ± 0.22
SMILES: CN(C)C=O [dimethylformamide] + OCC(O)CO

- relative permittivity at zero frequency [1]: 106.14 ± 0.64
SMILES: NC=O [formamide]

- relative permittivity at zero frequency ([2]; x2 = 0): 106.14 ± 0.64
- relative permittivity at zero frequency ([2]; x2 = 0.037): 103.13 ± 0.62
- relative permittivity at zero frequency ([2]; x2 = 0.077): 100.3 ± 0.6
- relative permittivity at zero frequency ([2]; x2 = 0.12): 96.91 ± 0.58
- relative permittivity at zero frequency ([2]; x2 = 0.165): 93.46 ± 0.56
- relative permittivity at zero frequency ([2]; x2 = 0.214): 89.87 ± 0.54
- relative permittivity at zero frequency ([2]; x2 = 0.266): 85.74 ± 0.51
- relative permittivity at zero frequency ([2]; x2 = 0.322): 81.37 ± 0.49
- relative permittivity at zero frequency ([2]; x2 = 0.383): 76.3 ± 0.46
- relative permittivity at zero frequency ([2]; x2 = 0.449): 71.94 ± 0.43
- relative permittivity at zero frequency ([2]; x2 = 0.521): 66.48 ± 0.4
- relative permittivity at zero frequency ([2]; x2 = 0.599): 61.52 ± 0.37
- relative permittivity at zero frequency ([2]; x2 = 0.685): 56.42 ± 0.34
- relative permittivity at zero frequency ([2]; x2 = 0.779): 50.76 ± 0.3
- relative permittivity at zero frequency ([2]; x2 = 0.884): 45.45 ± 0.27
SMILES: NC=O [formamide] + OCC(O)CO
